Assays:
Type in all cases: cell-based, human
[1] = system: AdMSCs; experiment: ELISA of secreted inflammatory factors in culture media of AdMSCs; settings: for effect on CXCL8 level / effect on IL6 level / effect on CCL2 level: LPS-stimulated AdMSC cultures, 24 h; for secreted IL-1RN concentration / secreted IL6 concentration / secreted CCL2 concentration / secreted CXCL8 concentration: LPS-stimulated, AIDs-treated 24 h; for secreted IL-1RN concentration: control + LPS 61 ± 18; for secreted IL6 concentration: control + LPS 210 ± 22; for secreted CCL2 concentration: control + LPS 461 ± 19.9; for secreted CXCL8 concentration: control + LPS 2373 ± 109; for IL-1RN level in culture media over time / IL6 level in culture media over time: LPS-treated cultures, single treatment; for IL-1RN level in culture media over time: serum-deficient, 24, 48 and 72 h; for IL6 level in culture media over time: serum-deficient, 24, 48 and 72 h (prednisolone: at 72 h)
Description: FIG. 5. Changes of inflammatory factors in culture media. Secreted IL6, CXCL8, CCL2 and IL1RN levels were measured from the conditional media of control, LPS-stimulated, and LPS-stimulated and paracetamol or prednisolone-treated AdMSCs by ELISA at 24, 48 and 72 h and represented as normalized to control 24 h probe.
To mimic inflammatory conditions, AdMSCs were exposed to lipopolysaccharide (LPS) prior to AIDs treatments. […] Then, LPS-treated AdMSCs were exposed to AIDs to study their effect on cytokines in inflammatory conditions.

[2] = system: AdMSCs; experiment: Cell cycle analysis by propidium iodide staining and flow cytometry; settings: 24 h after treatment; for percentage of cells in G0/G1 phase: non-treated control 82%, paracetamol 4.4 mM, diclofenac 10 μM, metamizole 10 μM, ketoprofen 50 μM, prednisolone 0.1 μM; for percentage of cells in G2/M cell cycle phase: vs non-treated control
Description: FIG. 2. Cell cycle analysis of control and AIDs-treated AdMSCs. AIDs-treated and control AdMSCs were stained with propidium iodide (PI) 24 h after treatments and analyzed using flow cytometry by BD Accuri C6.
The percentage of cells in G0/1 phase was lower in the cultures treated with metamizole (Analgin™) (65%) and paracetamol (71%), whereas the percentage of cells in G2/M cell cycle phase was increased in these cultures (FIG. 2).

[3] = system: AdMSCs; experiment: ELISA of secreted inflammatory factors in culture media of AdMSCs; settings: for secreted IL-1RN concentration / secreted IL6 concentration / secreted CCL2 concentration / secreted CXCL8 concentration: AIDs-treated 24 h; for secreted IL-1RN concentration: control 2.3 ± 0.03; for secreted IL6 concentration: control 40 ± 2; for secreted CCL2 concentration: control 96 ± 3.2; for secreted CXCL8 concentration: control 277 ± 12.7
[4] = system: AdMSCs; experiment: RT-qPCR of angiogenic marker mRNA in AIDs-treated AdMSCs; settings: 24 h treatment, relative to untreated AdMSCs, normalized with GAPDH
Description: VEGFA, HGF, bFGF and TEK mRNA expression levels in AdMSCs treated with AIDs for 24 h were measured in triplicates by RT-qPCR and normalized with GAPDH mRNA expression levels. Data from AIDs-treated cells were calculated relatively to control untreated AdMSCs and results are represented in a log scale. Positive values indicated increased and negative values decreased mRNA levels compared to control untreated cells.
Numerous soluble factors produced by MSCs are involved in the regulation of angiogenesis and neovascularisation in vivo (Estrada et al., 2009). […] The effect of the AIDs on expression of angiogenic factors in AdMSCs was analyzed. Different AIDs affected the expression of angiogenic factors differently either stimulating or suppressing their expression.

[5] = system: LPS-stimulated AdMSCs; experiment: RT-qPCR of inflammatory gene mRNA in LPS-stimulated AIDs-treated AdMSCs; settings: 24 hours exposure, vs LPS-treated cells
Description: FIG. 4. Relative mRNA expression of inflammatory genes in LPS-stimulated and AIDs-treated for 24 h AdMSCs represented as heat map. Expression levels were measured in triplicates by RT-qPCR and normalized with GAPDH mRNA expression levels. Data from LPS-stimulated AIDs-treated AdMSCs were calculated as a relative fold difference compared to LPS-treated cells and converted to the log scale. The quantitative changes in gene expression are represented by shading: darker shade indicates up-regulation, whereas lighter shade indicates down-regulation. Expression data were visualized using GENE-E software.
FIG. 6. Heat map of the expression profile of inflammatory genes in LPS-stimulated and AIDs-treated AdMSCs. Inflammatory genes mRNA expression levels of LPS-stimulated and AIDs-treated for 48 h (A) and 72 h (B) AdMSCs were calculated as a fold difference compared to LPS-treated AdMSCs and represented as heat maps. Expression levels of inflammatory gene mRNAs were measured in triplicates by RT-qPCR, normalized with GAPDH mRNA levels and converted to the log scale. Positive values (darker shade) indicate higher expression, and negative values (lighter shade) lower expression relatively to the control LPS-treated AdMSCs.
Effects of AIDs on mRNA expression of inflammatory cytokines in AdMSCs were analyzed using RT-qPCR technique. Analyses results were visualized as a heat map graph using GENE-E platform (FIG. 4). Short-term treatment of AdMSCs by AIDs affected the expression of inflammatory cytokines. […] Expression of pro-inflammatory cytokines CCL2, CCL3, TNF, IL6, ILIA and ILIB was suppressed by ketoprofen and metamizole (Analgin™) treatments.
Effects of repeated AIDs treatments (48 and 72 h) on mRNA expression of cytokines in AdMSCs were analyzed using RT-qPCR technique. Differential expression of cytokine genes is represented as a heat map in FIG. 6. […] Upon exposure to various drugs, complex expression pattern of pro- and anti-inflammatory factors were observed. […] However, the stable induced expression of anti-inflammatory factors (IL4, TNFAIP6, IDO1) was not observed.

[6] = system: AdMSCs; experiment: WST-1 metabolic activity assay of AdMSCs treated with anti-inflammatory drugs; settings: first 24 hours; metamizole 10 μM
Description: AdMSCs metabolic activity was measured at 1, 2, 3 and 5 days after the treatments.
During the first 48 hours, all analyzed AIDs stimulated the metabolic activity of AdMSCs.

[7] = LPS-treated cultures, single treatment, serum-deficient, 24, 48 and 72 h
[8] = standard culture conditions, no LPS

SMILES | effect on CXCL8 level [1] | effect on IL6 level [1] | secreted IL-1RN concentration [1] [pg/mL] | secreted IL6 concentration [1] [pg/mL] | secreted CCL2 concentration [1] [pg/mL] | secreted CXCL8 concentration [1] [pg/mL] | IL-1RN level in culture media over time [1] | IL6 level in culture media over time [1] | percentage of cells in G0/G1 phase [2] [%] | secreted IL-1RN concentration ([3]; no LPS) [pg/mL] | secreted IL6 concentration ([3]; no LPS) [pg/mL] | secreted CCL2 concentration ([3]; no LPS) [pg/mL] | secreted CXCL8 concentration ([3]; no LPS) [pg/mL] | CCL2 level in culture media over time [3, 7] | effect on synthesis and secretion of immunomodulatory factors [3, 8] | HGF mRNA expression [4] | TEK mRNA expression [4] | VEGFA mRNA expression [4] | bFGF mRNA expression [4] | effect on CCL2 level [1] | further results
C[C@]12C=CC(=O)C=C1CC[C@@H]1[C@@H]2[C@@H](O)C[C@@]2(C)[C@H]1CC[C@]2(O)C(=O)CO [prednisolone] | significantly reduced | significantly reduced | 33 ± 2 | 50 ± 12 | 314 ± 23.2 | 402 ± 51 | inhibited | moderately induced | 77 | 7.3 ± 0.20 | 30 ± 2 | 100 ± 12.2 | 35 ± 0.1 | significantly stimulated | minor effect | inhibited | opposite effect | inhibited | opposite effect |  | 
O=C(O)Cc1ccccc1Nc1c(Cl)cccc1Cl [diclofenac] | stimulated | stimulated | 17 ± 2 | 390 ± 4 |  | 2807 ± 361 |  |  | 81 |  | 50 ± 1 | 64 ± 8.4 |  |  | minor effect | no effect | no effect | no effect | no effect | no effect | TGFβ1 and TGFβ3 mRNA expression [5]: suppressed; TGFβ2 mRNA expression [5]: stimulated
CC(C(=O)O)c1cccc(C(=O)c2ccccc2)c1 (centres unmarked) [ketoprofen] | stimulated | stimulated | 12 ± 0.5 | 440 ± 143 | 451 ± 31.8 | 2509 ± 68 |  |  | 80 | 0 | 10 ± 1 | 165 ± 23.4 | 301 ± 0.3 |  | minor effect | up-regulation | up-regulation | up-regulation | up-regulation | no effect | expression of pro-inflammatory cytokines CCL2, CCL3, TNF, IL6, ILIA and ILIB (mRNA) [5]: suppressed
CC(=O)Nc1ccc(O)cc1 [paracetamol] | significantly reduced | significantly reduced | 33 ± 9 | 90 ± 14 | 270 ± 29.9 | 623 ± 41 | no significant effects | no significant effects | 71 | 11.0 ± 0.65 | 0 | 8 ± 0.4 | 11 ± 0.1 | lowered | minor effect | inhibited | strongly suppressed | inhibited | induced |  | TGFβ1 and TGFβ3 mRNA expression [5]: suppressed; TGFβ2 mRNA expression [5]: stimulated; percentage of cells in G2/M cell cycle phase [2]: increased; CXCL8 level in culture media over time [3, 7]: no significant effects; CCL2 level in culture media compared to untreated cells [3, 8]: significant reduction; CXCL8/IL8 level in culture media compared to untreated cells [3, 8]: significant reduction; IL6 level in culture media compared to untreated cells [3, 8]: significant reduction
Cc1c(N(C)CS(=O)(=O)O)c(=O)n(-c2ccccc2)n1C [metamizole (Analgin™), metamizole] |  |  | 12 ± 1 | 180 ± 29 | 313 ± 43.9 | 1816 ± 121 |  |  | 65 | 3.9 ± 0.03 | 30 ± 1 | 109 ± 3.2 | 341 ± 4.7 |  | minor effect | up-regulation | up-regulation | up-regulation | up-regulation | Inhibitory effect | expression of pro-inflammatory cytokines CCL2, CCL3, TNF, IL6, ILIA and ILIB (mRNA) [5]: suppressed; cellular metabolism (WST-1 metabolic activity) [6]: significantly stimulated; percentage of cells in G2/M cell cycle phase [2]: increased; effect on IL1RN expression ([3]; LPS-stimulated AdMSC cultures, 24 h): Inhibitory effect

From patent publication US12678463B2, “Activated mesenchymal stem cells for treating limb ischemia” (Cellin Technologies OÜ, priority 2019, dated 2026)
